# Measured values taken from US10828315B2 (Madrigal Pharmaceuticals, Inc., priority 2013, dated 2020).
# Assay: Physical appearance of SDC-TRAP-0063 formulations and infusion solutions with different diluents and carbonate buffers
# Assay type: physicochemical
# Details: for Observations (physical appearance): 5% v/v DMSO
# Experimental: First, a stock solution of SDC-TRAP-0063 was prepared in DMSO at 22 mg/mL, then the required amount of tween 80 was added and mixed well.
# The above formulation containing SDC-TRAP-0063 was diluted using either D5W, D5W (pH 10.5, adjusted with 4.55 mM NaOH) or carbonate buffer, pH 10) (final drug concentration.: 1 mg/mL SDC-TRAP-0063, 1.8% v/v Tween 80, 5% v/v DMSO). The physical observations on these solutions were noted before and filtration through 0.22μ PES filter and were further observed for 3 hr. Refer to the table below for summary of observations. Note: Carbonate buffer, pH 10 was prepared by mixing 0.1M sodium carbonate (27.5 mL) and 0.1M sodium bicarbonate (22.5 mL) and qs 200 mL with DIW. The total Na content of carbonate buffer was 39 mM.
# A stock solution of SDC-TRAP-0063 was prepared in either DMSO or PEG-300. To prepare formulations containing DMSO and tween 80, required amount of tween 80 added to the stock of DMSO (containing SDC-TRAP-0063). The formulations were then was diluted with carbonate buffer, pH 10 (composition: add and mix 0.1M sodium carbonate (27.5 mL) and 0.1M sodium bicarbonate (22.5 mL) and qs 200 mL with DIW). The samples (prepared in glass vial) were mixed well and observed for physical appearance while stirring on a magnetic stirring plate at ambient. (Note-appropriate amounts of SDC-TRAP-0063, tween 80, DMSO and PEG-300, as applicable were used to prepare the solutions at the desired concentrations and drug concentrations at 1 mg/mL through 5 mg/mL as shown).
# Carbonate buffers of different pH (pH 9-10) and ionic strengths (with higher (>2) Na contents that SDC-TRAP-0063 on molar basis) were prepared and used for diluting the DMSO/tween 80 formulation loaded with SDC-TRAP-0063 (as described in earlier section 3). The final concentrations of DMSO and tween 80 in the diluted carbonate buffer were 5% v/v and 1.8% v/v respectively. The drug concentration was kept constant (5 mg/mL) for all diluted samples.
structure (smiles),measurement,setting,value
"CCc1c2c(nc3ccc(OC(=O)N4CCC(CCn5ccc6cc(-n7c(O)nnc7-c7cc(C(C)C)c(O)cc7O)ccc65)CC4)cc13)-c1cc3c(c(=O)n1C2)COC(=O)[C@]3(O)CC [SDC-TRAP-0063, 4,11-diethyl-4-hydroxy-3,14-dioxo-3,4,12,14-tetrahydro-1H-pyrano[3′,4′:6,7]indolizino[1,2-b]quinolin-9-yl 4-(2-(5-(3-(2,4-dihydroxy-5-isopropylphenyl)-5-hydroxy-4H-1,2,4-triazol-4-yl)-1H-indol-1-yl)ethyl)piperidine-1-carboxylate]",physical appearance of stock solution,"22 mg/mL in DMSO, and after addition of tween 80",clear and homogenous
same,"physical appearance after dilution with carbonate buffer, pH 10","5% v/v DMSO + […] v/v tween 80, 1-5 mg/mL",clear at 2 hr of stirring
same,Observations (physical appearance),"[…] v/v Tween 80, carbonate buffer pH 10 (39 mM Na), 1 mg/mL, 30 min",Clear
same,Observations (physical appearance),"[…] v/v Tween 80, carbonate buffer pH 10 (39 mM Na), 1 mg/mL, 1 h",Clear
same,Observations (physical appearance),"[…] v/v Tween 80, carbonate buffer pH 10 (39 mM Na), 1 mg/mL, 2 h",Clear
same,Observations (physical appearance),"[…] v/v Tween 80, carbonate buffer pH 10 (39 mM Na), 1 mg/mL, Initial",Clear
same,Observations (physical appearance),"[…] v/v Tween 80, carbonate buffer pH 10 (39 mM Na), 1 mg/mL, Overnight",Clear
same,Observations (physical appearance),"[…] v/v Tween 80, carbonate buffer pH 10 (39 mM Na), 2 mg/mL, 30 min",Clear
same,Observations (physical appearance),"[…] v/v Tween 80, carbonate buffer pH 10 (39 mM Na), 2 mg/mL, 1 h",Clear
same,Observations (physical appearance),"[…] v/v Tween 80, carbonate buffer pH 10 (39 mM Na), 2 mg/mL, 2 h",Clear
same,Observations (physical appearance),"[…] v/v Tween 80, carbonate buffer pH 10 (39 mM Na), 2 mg/mL, Initial",Clear
same,Observations (physical appearance),"[…] v/v Tween 80, carbonate buffer pH 10 (39 mM Na), 2 mg/mL, Overnight",Clear
same,Observations (physical appearance),"[…] v/v Tween 80, carbonate buffer pH 10 (39 mM Na), 3 mg/mL, 30 min",Cloudy
same,Observations (physical appearance),"[…] v/v Tween 80, carbonate buffer pH 10 (39 mM Na), 3 mg/mL, 1 h",Clear
same,Observations (physical appearance),"[…] v/v Tween 80, carbonate buffer pH 10 (39 mM Na), 3 mg/mL, 2 h",Clear
same,Observations (physical appearance),"[…] v/v Tween 80, carbonate buffer pH 10 (39 mM Na), 3 mg/mL, Initial",Cloudy
same,Observations (physical appearance),"[…] v/v Tween 80, carbonate buffer pH 10 (39 mM Na), 3 mg/mL, Overnight",Clear
same,Observations (physical appearance),"[…] v/v Tween 80, carbonate buffer pH 10 (39 mM Na), 4 mg/mL, 30 min",Cloudy
same,Observations (physical appearance),"[…] v/v Tween 80, carbonate buffer pH 10 (39 mM Na), 4 mg/mL, 1 h",Cloudy
same,Observations (physical appearance),"[…] v/v Tween 80, carbonate buffer pH 10 (39 mM Na), 4 mg/mL, 2 h",Clear
same,Observations (physical appearance),"[…] v/v Tween 80, carbonate buffer pH 10 (39 mM Na), 4 mg/mL, Initial",Cloudy
same,Observations (physical appearance),"[…] v/v Tween 80, carbonate buffer pH 10 (39 mM Na), 4 mg/mL, Overnight",Clear
same,Observations (physical appearance),"[…] v/v Tween 80, carbonate buffer pH 10 (39 mM Na), 5 mg/mL, 30 min",Cloudy
same,Observations (physical appearance),"[…] v/v Tween 80, carbonate buffer pH 10 (39 mM Na), 5 mg/mL, 1 h",Cloudy
same,Observations (physical appearance),"[…] v/v Tween 80, carbonate buffer pH 10 (39 mM Na), 5 mg/mL, 2 h",Clear
same,Observations (physical appearance),"[…] v/v Tween 80, carbonate buffer pH 10 (39 mM Na), 5 mg/mL, Initial",Cloudy
same,Observations (physical appearance),"[…] v/v Tween 80, carbonate buffer pH 10 (39 mM Na), 5 mg/mL, Overnight",Clear
same,Observations (physical appearance),"[…] v/v Tween 80, 5 mg/mL, Carbonate buffer, pH 9.2 (25 mM Na), 1 h",Cloudy
same,Observations (physical appearance),"[…] v/v Tween 80, 5 mg/mL, Carbonate buffer, pH 9.2 (25 mM Na), 2 h",Cloudy
same,Observations (physical appearance),"[…] v/v Tween 80, 5 mg/mL, Carbonate buffer, pH 9.2 (25 mM Na), 3 h",Cloudy
same,Observations (physical appearance),"[…] v/v Tween 80, 5 mg/mL, Carbonate buffer, pH 9.2 (25 mM Na), Initial",Cloudy
same,Observations (physical appearance),"[…] v/v Tween 80, 5 mg/mL, Carbonate buffer, pH 9.2 (25 mM Na), Overnight",Cloudy
same,Observations (physical appearance),"[…] v/v Tween 80, 5 mg/mL, Carbonate buffer, pH 9.5 (26.5 mM Na), 1 h",Cloudy
same,Observations (physical appearance),"[…] v/v Tween 80, 5 mg/mL, Carbonate buffer, pH 9.5 (26.5 mM Na), 2 h",Cloudy
same,Observations (physical appearance),"[…] v/v Tween 80, 5 mg/mL, Carbonate buffer, pH 9.5 (26.5 mM Na), 3 h",Cloudy
same,Observations (physical appearance),"[…] v/v Tween 80, 5 mg/mL, Carbonate buffer, pH 9.5 (26.5 mM Na), Initial",Cloudy
same,Observations (physical appearance),"[…] v/v Tween 80, 5 mg/mL, Carbonate buffer, pH 9.5 (26.5 mM Na), Overnight",Cloudy
same,Observations (physical appearance),"[…] v/v Tween 80, 5 mg/mL, Carbonate buffer, pH 9.5 ([…] Na), 1 h",Cloudy
same,Observations (physical appearance),"[…] v/v Tween 80, 5 mg/mL, Carbonate buffer, pH 9.5 ([…] Na), 2 h",Cloudy
same,Observations (physical appearance),"[…] v/v Tween 80, 5 mg/mL, Carbonate buffer, pH 9.5 ([…] Na), 3 h",Clear
same,Observations (physical appearance),"[…] v/v Tween 80, 5 mg/mL, Carbonate buffer, pH 9.5 ([…] Na), Initial",Cloudy
same,Observations (physical appearance),"[…] v/v Tween 80, 5 mg/mL, Carbonate buffer, pH 9.5 ([…] Na), Overnight",Clear
same,Observations (physical appearance),"[…] v/v Tween 80, 5 mg/mL, Carbonate buffer, pH 10 (39 mM Na), 1 h",Cloudy
same,Observations (physical appearance),"[…] v/v Tween 80, 5 mg/mL, Carbonate buffer, pH 10 (39 mM Na), 2 h",Clear yellow
same,Observations (physical appearance),"[…] v/v Tween 80, 5 mg/mL, Carbonate buffer, pH 10 (39 mM Na), 3 h",Clear yellow
same,Observations (physical appearance),"[…] v/v Tween 80, 5 mg/mL, Carbonate buffer, pH 10 (39 mM Na), Initial",Cloudy
same,Observations (physical appearance),"[…] v/v Tween 80, 5 mg/mL, Carbonate buffer, pH 10 (39 mM Na), Overnight",Clear yellow
same,Observations (physical appearance),"[…] v/v Tween 80, 5 mg/mL, Carbonate buffer, pH 10 (155 mM Na), 1 h",Clear
same,Observations (physical appearance),"[…] v/v Tween 80, 5 mg/mL, Carbonate buffer, pH 10 (155 mM Na), 2 h",Clear yellow
same,Observations (physical appearance),"[…] v/v Tween 80, 5 mg/mL, Carbonate buffer, pH 10 (155 mM Na), 3 h",Clear yellow
same,Observations (physical appearance),"[…] v/v Tween 80, 5 mg/mL, Carbonate buffer, pH 10 (155 mM Na), Initial",Cloudy
same,Observations (physical appearance),"[…] v/v Tween 80, 5 mg/mL, Carbonate buffer, pH 10 (155 mM Na), Overnight",Clear yellow
same,Observations (physical appearance),"carbonate buffer pH 10 (39 mM Na), 1 mg/mL, 30 min",Cloudy
same,Observations (physical appearance),"carbonate buffer pH 10 (39 mM Na), 1 mg/mL, 1 h",Cloudy
same,Observations (physical appearance),"carbonate buffer pH 10 (39 mM Na), 1 mg/mL, 6 h",Cloudy
same,Observations (physical appearance),"carbonate buffer pH 10 (39 mM Na), 1 mg/mL, Initial",Cloudy
same,Observations (physical appearance),"carbonate buffer pH 10 (39 mM Na), 1 mg/mL, Overnight",Clear yellow solution
same,Observations (physical appearance),"carbonate buffer pH 10 (39 mM Na), 2 mg/mL, 30 min",Cloudy
same,Observations (physical appearance),"carbonate buffer pH 10 (39 mM Na), 2 mg/mL, 1 h",Cloudy
same,Observations (physical appearance),"carbonate buffer pH 10 (39 mM Na), 2 mg/mL, 6 h",Cloudy
